Measured values published in US20230117034A1, “PYRAZOLOTRIAZINES” (Bayer Aktiengesellschaft, priority 2019, published 2023).

What was measured:
CDK2/CycE = biological target: T1, CDK2/CycE (Homo sapiens, UniProt P24941); test: CDK2/CycE kinase assay (TR-FRET, 2 mM ATP); format: biochemical; conditions: 2 mM ATP (high ATP); median; read-out: CDK2/CyclinE, 2 mM ATP (high ATP), IC50 (median)
T1 construct: purchased ProQinase GmbH (Freiburg, Germany); host or cells: insect cells (Sf9)
In short: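 Biotin-peptide phosphorylation (0.75 µM substrate, 2 mM ATP final, 25 min, 22 °C) by Sf9-expressed GST-CDK2/GST-CycE, after a 15-min compound pre-binding step. Inhibition scaled between enzyme-free (100%) and uninhibited (0%) wells.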

[1] = system: BRCA1 mRNA expression in MDA-MB-231 cells; test: qRT-PCR assay: BRCA1 mRNA expression in MDA-MB-231; format: cell-based, human; conditions: Homo sapiens, MDA-MB-231, Inhibition of BRCA1 mRNA expression in MDA-MB-231 cells; median; read-out: RTqPCR-MDA-MB-231, IC50, BRCA1 (median)
In short: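 Seed 200,000 cells/well; 24 h later add compound, continuous exposure 24 h; extract RNA, 600 ng to cDNA; RT-qPCR, normalised to GAPDH.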

[2] = system: CAL-120, human breast adenocarcinoma cells; test: Proliferation assay CAL-120 (crystal violet, 4 days); format: cell-based; conditions: Homo sapiens, CAL-120, 96 h, CAL-120 cells, median, read-out: Prolif-CAL-120, IC50-[mol/l] (median)
In short: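 IC50 from a 4-parameter fit of crystal violet absorbance (595 nm), scaled between a day-0 plate (0%) and untreated wells (100%). Cells grown in 10% FCS medium were exposed to test substances at 0.01-10 µmol/L for 4 days, 0.1% DMSO final.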

Row | SMILES | IC50 (CDK2/CycE) [nM] | IC50 [1] [nM] | IC50 [2] [nM]
1 | CC(C)c1cnn2c(NCc3nnc(-c4ccccc4)[nH]3)nc(N3CCOCC3)nc12 [Example 33, 2-(morpholin-4-yl)-N-[(5-phenyl-4H-1,2,4-triazol-3-yl)methyl]-8-(propan-2-yl)pyrazolo[1,5-a][1,3,5]triazin-4-amine] | 8260 | 23.7 | –
2 | Clc1cc2nc(CNc3nc(N4CCOCC4)nc4c(-c5cscn5)cnn34)[nH]c2cc1Cl [Example 424, N-[(5,6-dichloro-1H-benzimidazol-2-yl)methyl]-2-(morpholin-4-yl)-8-(1,3-thiazol-4-yl)pyrazolo [1,5-a][1,3,5]triazin-4-amine] | > 20000 | – | 41.1
3 | Cn1cc(-c2cnn3c(NCc4nc5cc(Cl)c(Cl)cc5[nH]4)nc(N4CCOCC4)nc23)cn1 [Example 419, N-[(5,6-dichloro-1H-benzimidazol-2-yl)methyl]-8-(1-methyl-1H-pyrazol-4-yl)-2-(morpholin-4-yl)pyrazolo[1,5-a][1,3,5]triazin-4-amine] | > 20000 | – | 79.5
4 | CC(C)c1cnn2c(NCc3nnc(-c4ccccc4)[nH]3)nc(N3CCN(C)CC3)nc12 [Example 37, 2-(4-methylpiperazin-1-yl)-N-[(5-phenyl-4H-1,2,4-triazol-3-yl)methyl]-8-(propan-2-yl)pyrazolo[1,5-a][1,3,5]triazin-4-amine] | > 15300 | – | –
5 | Brc1cnn2c(NCc3nc4ccccc4[nH]3)nc(OC3CCCCC3)nc12 [Example 406, N-[(1H-benzimidazol-2-yl)methyl]-8-bromo-2-(cyclohexyloxy)pyrazolo[1,5-a][1,3,5]triazin-4-amine] | 15000 | – | 62.2
6 | Cc1cnn2c(NCc3nc4ccccc4[nH]3)nc(N(C)CC(C)(C)O)nc12 [Example 397, 1-[(4-{[(1H-benzimidazol-2-yl)methyl]amino}-8-methylpyrazolo[1,5-a][1,3,5]triazin-2-yl)(methyl)amino]-2-methylpropan-2-ol] | 17200 | – | 171
7 | COc1cccc2[nH]c(CNc3nc(N4CCOCC4)nc4c(-c5nccs5)cnn34)nc12 [Example 414, N-[(4-methoxy-1H-benzimidazol-2-yl)methyl]-2-(morpholin-4-yl)-8-(1,3-thiazol-2-yl)pyrazolo [1,5-a][1,3,5]triazin-4-amine] | > 20000 | – | 80.4
8 | CN(C)CCOc1nc(NCc2nc3ccccc3[nH]2)n2ncc(Br)c2n1 [Example 399, N-[(1H-benzimidazol-2-yl)methyl]-8-bromo-2-[2-(dimethylamino)ethoxy]pyrazolo[1,5-a][1,3,5]triazin-4-amine] | > 20000 | – | 83
9 | CC(C)COc1nc(NCc2nc3ccccc3[nH]2)n2ncc(Br)c2n1 [Example 409, N-[(1H-benzimidazol-2-yl)methyl]-8-bromo-2-(2-methylpropoxy)pyrazolo[1,5-a][1,3,5]triazin-4-amine] | 12800 | – | 99
10 | CCNc1nc(NCc2nnc(-c3ccccc3)[nH]2)n2ncc(C(C)C)c2n1 [Example 38, N^2-ethyl-N^4-[(5-phenyl-4H-1,2,4-triazol-3-yl)methyl]-8-(propan-2-yl)pyrazolo[1,5-a][1,3,5]triazine-2,4-diamine] | 8300 | – | –
11 | Cc1cnn2c(NCc3nc4ccccc4[nH]3)nc(N3CCN(C)CC3)nc12 [Example 396, N-[(1H-benzimidazol-2-yl)methyl]-8-methyl-2-(4-methylpiperazin-1-yl)pyrazolo[1,5-a][1,3,5]triazin-4-amine] | 13900 | – | 55
12 | Brc1cnn2c(NCc3nc4ccccc4[nH]3)nc(OC3CCOCC3)nc12 [Example 405, N-[(1H-benzimidazol-2-yl)methyl]-8-bromo-2-[(oxan-4-yl)oxy]pyrazolo[1,5-a][1,3,5]triazin-4-amine] | > 20000 | – | 135
13 | CN1CCN(c2nc(NCc3nc4c(F)c(F)ccc4[nH]3)n3ncc(-c4nccs4)c3n2)CC1 [Example 415, N-[(4,5-difluoro-1H-benzimidazol-2-yl)methyl]-2-(4-methylpiperazin-1-yl)-8-(1,3-thiazol-2-yl)pyrazolo[1,5-a][1,3,5]triazin-4-amine] | > 20000 | – | 268
14 | Cc1cnn2c(NCc3nc4ccccc4[nH]3)nc(N3CC4CCC(C3)N4)nc12 [Example 401, N-[(1H-benzimidazol-2-yl)methyl]-2-(3,8-diazabicyclo[3.2.1]octan-3-yl)-8-methylpyrazolo[1,5-a][1,3,5]triazin-4-amine] | > 20000 | – | 43.5
15 | Cc1cnn2c(NCc3nc4ccccc4[nH]3)nc(N3CCOCC3)nc12 [Example 393, N-[(1H-benzimidazol-2-yl)methyl]-8-methyl-2-(morpholin-4-yl)pyrazolo[1,5-a][1,3,5]triazin-4-amine] | 9940 | – | 46.8
16 | CN1CCN(c2nc(NCc3nc4ccccc4[nH]3)n3ncc(CC(F)(F)F)c3n2)CC1 [Example 436, N-[(1H-benzimidazol-2-yl)methyl]-2-(4-methylpiperazin-1-yl)-8-(2,2,2-trifluoroethyl)pyrazolo [1,5-a][1,3,5]triazin-4-amine] | > 20000 | – | 108
17 | Brc1cnn2c(NCc3nc4ccccc4[nH]3)nc(OC3CCNCC3)nc12 [Example 411, N-[(1H-benzimidazol-2-yl)methyl]-8-bromo-2-[(piperidin-4-yl)oxy]pyrazolo[1,5-a][1,3,5]triazin-4-amine] | 16300 | – | 79
18 | Brc1cnn2c(NCc3nc4ccccc4[nH]3)nc(OCC3CC3)nc12 [Example 408, N-[(1H-benzimidazol-2-yl)methyl]-8-bromo-2-(cyclopropylmethoxy)pyrazolo[1,5-a][1,3,5]triazin-4-amine] | > 19700 | – | 252
19 | Cn1cc(-c2cnn3c(NCc4nc5c(F)c(F)ccc5[nH]4)nc(N4CCOCC4)nc23)cn1 [Example 418, N-[(4,5-difluoro-1H-benzimidazol-2-yl)methyl]-8-(1-methyl-1H-pyrazol-4-yl)-2-(morpholin-4-yl)pyrazolo[1,5-a][1,3,5]triazin-4-amine] | > 20000 | – | 64.4
20 | NCCOCCOCCNc1nc(NCc2nc3ccccc3[nH]2)n2ncc(Br)c2n1 [Example 412, N2-{2-[2-(2-aminoethoxy)ethoxy]ethyl}-N4-[(1H-benzimidazol-2-yl)methyl]-8-bromopyrazolo[1,5-a][1,3,5]triazine-2,4-diamine] | > 20000 | – | 1130
21 | COC(C)(C)COc1nc(NCc2nc3ccccc3[nH]2)n2ncc(Br)c2n1 [Example 403, N-[(1H-benzimidazol-2-yl)methyl]-8-bromo-2-(2-methoxy-2-methylpropoxy)pyrazolo[1,5-a][1,3,5]triazin-4-amine] | > 20000 | – | 151
22 | COc1cccc2nc(CNc3nc(N4CCN(C)CC4)nc4c(-c5nccs5)cnn34)[nH]c12 [Example 416, N-[(7-methoxy-1H-benzimidazol-2-yl)methyl]-2-(4-methylpiperazin-1-yl)-8-(1,3-thiazol-2-yl)pyrazolo[1,5-a][1,3,5]triazin-4-amine] | > 20000 | – | 358
23 | Brc1cnn2c(NCc3nc4ccccc4[nH]3)nc(OCCN3CCCC3)nc12 [Example 404, N-[(1H-benzimidazol-2-yl)methyl]-8-bromo-2-[2-(pyrrolidin-1-yl)ethoxy]pyrazolo[1,5-a][1,3,5]triazin-4-amine] | > 20000 | – | 189
24 | CN1CCN(c2nc(NCc3nc4cc(Cl)c(Cl)cc4[nH]3)n3ncc(-c4cnn(C)c4)c3n2)CC1 [Example 420, N-[(5,6-dichloro-1H-benzimidazol-2-yl)methyl]-2-(4-methylpiperazin-1-yl)-8-(1-methyl-1H-pyrazol-4-yl)pyrazolo[1,5-a][1,3,5]triazin-4-amine] | > 20000 | – | 209
25 | COc1cccc2nc(CNc3nc(N4CCOCC4)nc4c(-c5ccnnc5)cnn34)[nH]c12.O=C(O)C(F)(F)F [Example 439, trifluoroacetic acid N-[(7-methoxy-1H-benzimidazol-2-yl)methyl]-2-(morpholin-4-yl)-8-(pyridazin-4-yl)pyrazolo[1,5-a][1,3,5]triazin-4-amine] | > 20000 | – | 36.3
26 | O=C(O)C(F)(F)F.c1ccc2[nH]c(CNc3nc(N4CCOCC4)nc4c(-c5ccnnc5)cnn34)nc2c1 [Example 438, trifluoroacetic acid N-[(1H-benzimidazol-2-yl)methyl]-2-(morpholin-4-yl)-8-(pyridazin-4-yl)pyrazolo[1,5-a][1,3,5]triazin-4-amine] | > 20000 | – | 44.6
27 | CC(C)(O)COc1nc(NCc2nc3ccccc3[nH]2)n2ncc(Br)c2n1 [Example 398, 1-[(4-{[(1H-benzimidazol-2-yl)methyl]amino}-8-bromopyrazolo[1,5-a][1,3,5]triazin-2-yl)oxy]-2-methylpropan-2-ol] | 10400 | – | 67.4
28 | CN1CCN(c2nc(NCc3nc4ccccc4[nH]3)n3ncc(C4CC4(F)F)c3n2)CC1 (stereo not drawn) [Example 428, N-(1H-benzimidazol-2-ylmethyl)-8-(2,2-difluorocyclopropyl)-2-(4-methylpiperazin-1-yl)pyrazolo[1,5-a][1,3,5]triazin-4-amine] | > 20000 | – | 47.4
